According to patent publication USRE48711E1, “Apoptosis signal-regulating kinase inhibitors” (Gilead Sciences, Inc., priority 2009, dated 2021):

biological target: ASK1 (Apoptosis Signal-Regulating Kinase 1) (Homo sapiens (Human), UniProt Q99683); test: ASK1 (Apoptosis Signal-Regulating Kinase 1) TR-FRET Kinase Assay (Biochemical IC50); details: not given
Sequence (Q99683 649-946): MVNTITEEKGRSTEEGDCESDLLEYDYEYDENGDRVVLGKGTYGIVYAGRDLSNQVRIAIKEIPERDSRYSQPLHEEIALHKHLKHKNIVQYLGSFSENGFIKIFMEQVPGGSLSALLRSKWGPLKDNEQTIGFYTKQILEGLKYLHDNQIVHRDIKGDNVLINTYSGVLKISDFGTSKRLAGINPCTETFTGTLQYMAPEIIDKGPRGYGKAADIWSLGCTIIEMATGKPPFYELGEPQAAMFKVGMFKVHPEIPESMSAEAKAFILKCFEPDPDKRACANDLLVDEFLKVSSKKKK

IC50 [nM]	Compound
222	Cc1ccc2c(-c3ccc(C4CC4)nc3)cc(C(=O)Nc3cccc(-c4nncn4C4CC4)c3)nc2c1C [Example 240, N-(3-(4-cyclopropyl-4H-1,2,4-triazol-3-yl)phenyl)-4-(6-cyclopropylpyridin-3-yl)-7,8-dimethylquinoline-2-carboxamide]

same assay, conditions: TR-FRET, biotin-MBP substrate, 20 min pre-incubation, ATP added as 300 μM solution

IC50 [nM]	Compound
14	C[C@@H](c1ccccc1)n1cnnc1-c1cccc(NC(=O)c2cccc(-n3cnc(C4CC4)c3)c2)n1 [Example 217, (S)-3-(4-cyclopropyl-1H-imidazol-1-yl)-N-(6-(4-(1-phenylethyl)-4H-1,2,4-triazol-3-yl)pyridin-2-yl)benzamide]
16	CC(C)n1cnnc1-c1cccc(NC(=O)c2cc(-c3ccc(C4CC4)nc3)ccn2)c1 [Example 219, 6-cyclopropyl-N-(3-(4-isopropyl-4H-1,2,4-triazol-3-yl)phenyl)-3,4′-bipyridine-2′-carboxamide]
61	C[C@@H](c1ccccc1)n1cnnc1-c1cccc(NC(=O)c2cc(-c3ccc(C4CC4)nc3)ccn2)c1 [Example 220, (S)-6-cyclopropyl-N-(3-(4-(1-phenylethyl)-4H-1,2,4-triazol-3-yl)phenyl)-3,4′-bipyridine-2′-carboxamide]
31	O=C(Nc1cccc(-c2nncn2C2CCC2)c1)c1cc(-c2ccc(C3CC3)nc2)ccn1 [Example 221, N-(3-(4-cyclobutyl-4H-1,2,4-triazol-3-yl)phenyl)-6-cyclopropyl-3,4′-bipyridine-2′-carboxamide]
79	C[C@@H](C(=O)OC(C)(C)C)n1cnnc1-c1cccc(NC(=O)c2cc(-c3ccc(C4CC4)nc3)ccn2)c1 [Example 222, (S)-tert-butyl 2-(3-(3-(6-cyclopropyl-3,4′-bipyridine-2′-carboxamido)phenyl)-4H-1,2,4-triazol-4-yl)propanoate]
45	C[C@H](n1cnnc1-c1cccc(NC(=O)c2cc(-c3ccc(C4CC4)nc3)ccn2)c1)C(F)(F)F [Example 223, (S)-6-cyclopropyl-N-(3-(4-(1,1,1-trifluoropropan-2-yl)-4H-1,2,4-triazol-3-yl)phenyl)-3,4′-bipyridine-2′-carboxamide]
13	O=C(Nc1cccc(-c2nncn2C2CC2)n1)c1cc(-c2ccc(C3CC3)nc2)ccc1F [Example 224, N-(6-(4-cyclopropyl-4H-1,2,4-triazol-3-yl)pyridin-2-yl)-5-(6-cyclopropylpyridin-3-yl)-2-fluorobenzamide]
103	O=C(Nc1cccc(-c2nncn2C2CC2)n1)c1cc(-c2ccc(C3CC3)nc2)c2ccccc2n1 [Example 225, N-(6-(4-cyclopropyl-4H-1,2,4-triazol-3-yl)pyridin-2-yl)-4-(6-cyclopropylpyridin-3-yl)quinoline-2-carboxamide]
16	O=C(Nc1cccc(-c2nncn2C2CC2)n1)c1cc(-n2cnc(C3CC3)c2)c2ccccc2n1 [Example 226, 4-(4-cyclopropyl-1H-imidazol-1-yl)-N-(6-(4-cyclopropyl-4H-1,2,4-triazol-3-yl)pyridin-2-yl)quinoline-2-carboxamide]
8	O=C(Nc1cccc(-c2nncn2C2CC2)n1)c1ccc(Cl)c(-n2cnc(C3CC3)c2)c1 [Example 227, 4-chloro-3-(4-cyclopropyl-1H-imidazol-1-yl)-N-(6-(4-cyclopropyl-4H-1,2,4-triazol-3-yl)pyridin-2-yl)benzamide]
7	COc1ccc(C(=O)Nc2cccc(-c3nncn3C3CC3)n2)cc1-n1cnc(C2CC2)c1 [Example 228, 3-(4-cyclopropyl-1H-imidazol-1-yl)-N-(6-(4-cyclopropyl-4H-1,2,4-triazol-3-yl)pyridin-2-yl)-4-methoxybenzamide]
101	CCC(C)n1cnnc1-c1cccc(NC(=O)c2cc(-c3ccc(C4CC4)nc3)ccn2)c1 (stereo not drawn) [Example 229, N-(3-(4-sec-butyl-4H-1,2,4-triazol-3-yl)phenyl)-6-cyclopropyl-3,4′-bipyridine-2′-carboxamide]
58	C[C@@H](C1CC1)n1cnnc1-c1cccc(NC(=O)c2cc(-c3ccc(C4CC4)nc3)ccn2)c1 [Example 230, (S)-6-cyclopropyl-N-(3-(4-(1-cyclopropylethyl)-4H-1,2,4-triazol-3-yl)phenyl)-3,4′-bipyridine-2′-carboxamide]
1420	CCC(CC)n1cnnc1-c1cccc(NC(=O)c2cc(-c3ccc(C4CC4)nc3)ccn2)c1 [Example 231, 6-cyclopropyl-N-(3-(4-(pentan-3-yl)-4H-1,2,4-triazol-3-yl)phenyl)-3,4′-bipyridine-2′-carboxamide]
17	COC[C@H](C)n1cnnc1-c1cccc(NC(=O)c2cc(-c3ccc(C4CC4)nc3)ccn2)c1 [Example 232, (S)-6-cyclopropyl-N-(3-(4-(1-methoxypropan-2-yl)-4H-1,2,4-triazol-3-yl)phenyl)-3,4′-bipyridine-2′-carboxamide]
14	Cc1cc(-c2ccc(C3CC3)nc2)cc(C(=O)Nc2cccc(-c3nncn3C3CC3)n2)n1 [Example 233, 6-cyclopropyl-N-(6-(4-cyclopropyl-4H-1,2,4-triazol-3-yl)pyridin-2-yl)-6′-methyl-3,4′-bipyridine-2′-carboxamide]
8	COC[C@H](C)n1cnnc1-c1cccc(NC(=O)c2cc(-c3ccc(C4CC4)nc3)ccn2)n1 [Example 234, (S)-6-cyclopropyl-N-(6-(4-(1-methoxypropan-2-yl)-4H-1,2,4-triazol-3-yl)pyridin-2-yl)-3,4′-bipyridine-2′-carboxamide]
15	COC(c1cn(-c2cccc(C(=O)Nc3cccc(-c4nncn4C4CC4)n3)c2)cn1)C(F)(F)F (stereo not drawn) [Example 235, N-(6-(4-cyclopropyl-4H-1,2,4-triazol-3-yl)pyridin-2-yl)-3-(4-(2,2,2-trifluoro-1-methoxyethyl)-1H-imidazol-1-yl)benzamide]
139	Cc1ccc2c(-c3ccc(C4CC4)nc3)cc(C(=O)Nc3cccc(-c4nncn4C4CC4)n3)nc2c1C [Example 236, N-(6-(4-cyclopropyl-4H-1,2,4-triazol-3-yl)pyridin-2-yl)-4-(6-cyclopropylpyridin-3-yl)-7,8-dimethylquinoline-2-carboxamide]
38	CC[C@H](C)n1cnnc1-c1cccc(NC(=O)c2cc(-c3ccc(C4CC4)nc3)ccn2)c1 [Example 237, (S)-N-(3-(4-sec-butyl-4H-1,2,4-triazol-3-yl)phenyl)-6-cyclopropyl-3,4′-bipyridine-2′-carboxamide]
6	CC(C)[C@H](C)n1cnnc1-c1cccc(NC(=O)c2cc(-c3ccc(C4CC4)nc3)ccn2)c1 [Example 238, (S)-6-cyclopropyl-N-(3-(4-(3-methylbutan-2-yl)-4H-1,2,4-triazol-3-yl)phenyl)-3,4′-bipyridine-2′-carboxamide]
10900	Cc1cccc(C)c1OC[C@H](C)n1cnnc1-c1cccc(NC(=O)c2cc(-c3ccc(C4CC4)nc3)ccn2)c1 [Example 239, (S)-6-cyclopropyl-N-(3-(4-(1-(2,6-dimethylphenoxy)propan-2-yl)-4H-1,2,4-triazol-3-yl)phenyl)-3,4′-bipyridine-2′-carboxamide]
616	CN1CCC(n2cnnc2-c2cccc(NC(=O)c3cc(-c4ccc(C5CC5)nc4)ccn3)n2)CC1 [Example 241, 6-cyclopropyl-N-(6-(4-(1-methylpiperidin-4-yl)-4H-1,2,4-triazol-3-yl)pyridin-2-yl)-3,4′-bipyridine-2′-carboxamide]
